Data on 16 compounds can be found in ChEMBL document CHEMBL5321197, “Computational, in vitro and radiation-based in vivo studies on acetamide quinazolinone derivatives as new proposed purine nucleoside phosphorylase inhibitors for breast cancer” (Eur J Med Chem, 2023).

The structures appear in SMILES notation.

Experiment [1] concerns the target T1, Purine nucleoside phosphorylase (Homo sapiens, UniProt P00491).
T1 sequence (P00491 whole entry): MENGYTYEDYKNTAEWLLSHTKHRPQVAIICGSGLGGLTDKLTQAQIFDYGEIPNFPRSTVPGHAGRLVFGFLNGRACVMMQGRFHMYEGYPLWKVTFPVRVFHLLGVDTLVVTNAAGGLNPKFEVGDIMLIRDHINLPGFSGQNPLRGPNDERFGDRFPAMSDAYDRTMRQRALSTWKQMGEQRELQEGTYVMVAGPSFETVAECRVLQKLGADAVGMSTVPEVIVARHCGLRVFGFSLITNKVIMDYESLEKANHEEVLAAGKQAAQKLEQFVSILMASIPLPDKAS
The experiment is described as follows: Inhibition of PNP (unknown origin) by fluorescent based microplate reader analysis.

Experiment [2] deals with MCF7. The experiment is described as follows: Cytotoxicity against human MCF7 cells assessed as reduction in cell viability incubated for 24 hrs by MTT assay. In kind it is functional, cell-based. Conditions: MCF7, 24 h. On the technique in general: Formazan colour is commonly taken as a measure of viable cells.
Experiment [3] has as its system T47D. Briefly: Cytotoxicity against human T47D cells assessed as reduction in cell viability incubated for 24 hrs by MTT assay. In kind it is functional, cell-based.
The subject of experiment [4] is MDA-MB-468. Briefly: Cytotoxicity against human MDA-MB-468 cells assessed as reduction in cell viability incubated for 24 hrs by MTT assay. In kind it is functional, cell-based. Conditions: MDA-MB-468, 24 h.
For experiment [5], the system named is MCF-10A. The experiment is described as follows: Cytotoxicity against human MCF-10A cells assessed as reduction in cell viability incubated for 24 hrs by MTT assay. Format: functional, cell-based.
Experiment [6] has as its system Hs-578T. Briefly: cells. Conditions: Homo sapiens, 24 h. In kind it is functional, cell-based.
Description: Cytotoxicity against human Hs-578T cells assessed as reduction in cell viability incubated for 24 hrs by MTT assay
Experiment [7] concerns MDA-MB-231. Briefly: Cytotoxicity against human MDA-MB-231 cells assessed as reduction in cell viability incubated for 24 hrs by MTT assay. Conditions: MDA-MB-231, 24 h. In kind it is functional, cell-based.
Experiment [8] deals with BT-549. The experiment is described as follows: Cytotoxicity against human BT-549 cells assessed as reduction in cell viability incubated for 24 hrs by MTT assay. Format: functional, cell-based. Conditions: BT-549, 24 h.

`Cc1ccc2c(c1)c(=O)n(-c1ccccc1)c(=S)n2CC(=O)NCCc1ccccc1`: the IC50 (commonly the concentration at which inhibition is half-maximal) came out at 0.442 µM in experiment [1] and 48.1 µM in experiment [2].
As for `COc1cc(NC(=O)CSc2nc3ccc(C)cc3c(=O)n2-c2ccccc2)cc(OC)c1`, the IC50 was determined as 1.32 µM in experiment [1] and 8.5 µM in experiment [2].
The corresponding values for `COc1cc(NC(=O)CSc2nc3ccc(C)cc3c(=O)n2-c2ccccc2)cc(OC)c1OC` are 3.18 µM and 158 µM.
`COc1cc(NC(=O)Cn2c(=S)n(-c3ccccc3)c(=O)c3cc(C)ccc32)cc(OC)c1`: in experiment [2], the IC50 was 9.87 µM.
For the compound `COc1ccc(NC(=O)CSc2nc3ccc(C)cc3c(=O)n2-c2ccccc2)cc1OC`, the IC50 in experiment [1] worked out at 5.63 µM; in experiment [2], 383 µM.
Regarding `COc1cc(NC(=O)Cn2c(=S)n(-c3ccccc3)c(=O)c3cc(C)ccc32)cc(OC)c1OC`, the figures for the IC50 in experiment [1] and in experiment [2] were 0.255 µM and 3.73 µM, respectively.
Turning to `COc1cc2ncnc(Nc3ccc(F)c(Cl)c3)c2cc1OCCCN1CCOCC1` [GEFITINIB], the IC50 in experiment [3] came to 3.47 µM.
`CCOC(=O)c1ccccc1NC(=O)CSc1nc2ccc(C)cc2c(=O)n1-c1ccccc1`: the IC50 in experiment [1] was 2.12 µM; in experiment [2] it was 926 µM.
Take `CCOC(=O)c1ccccc1NC(=O)Cn1c(=S)n(-c2ccccc2)c(=O)c2cc(C)ccc21`: the IC50 stood at 0.159 µM in experiment [1]; 5.83 µM in experiment [4]; 0.99 µM in experiment [2]; 67.3 µM in experiment [5]; 4.54 µM in experiment [3]; 22.3 µM in experiment [6]. Further, the IC50 in experiment [7] is 6.01 µM; in experiment [8], 6.84 µM.
For the compound `CCOC(=O)N1CCC(NC(=O)CSc2nc3ccc(C)cc3c(=O)n2-c2ccccc2)CC1`, the IC50 worked out at 1.88 µM in experiment [1] and 31 µM in experiment [2].
The corresponding values for `CC(=O)c1ccccc1NC(=O)CSc1nc2ccc(C)cc2c(=O)n1-c1ccccc1` are 3.35 µM and 278 µM.
As for `COc1ccc(NC(=O)Cn2c(=S)n(-c3ccccc3)c(=O)c3cc(C)ccc32)cc1OC`, the IC50 was found to be 0.338 µM in experiment [1] and 5.16 µM in experiment [2].
For `CCOC(=O)N1CCC(NC(=O)Cn2c(=S)n(-c3ccccc3)c(=O)c3cc(C)ccc32)CC1`, the results for the IC50 in experiment [1] and in experiment [2] were 0.173 µM and 1.77 µM, respectively.
`Nc1nc2c(Cc3cccnc3)c[nH]c2c(=O)[nH]1` [PELDESINE] showed an IC50 in experiment [1] of 0.041 µM.
On to `Cc1ccc2nc(SCC(=O)NCCc3ccccc3)n(-c3ccccc3)c(=O)c2c1`, for which the results for the IC50 in experiment [1] and in experiment [2] were 1.13 µM and 104 µM, respectively.
Consider `CC(=O)c1ccccc1NC(=O)Cn1c(=S)n(-c2ccccc2)c(=O)c2cc(C)ccc21`, for which the IC50 was 0.998 µM in experiment [1] and 87.2 µM in experiment [2].
